Experimental data: article PMC7433010, “Exploration of multi‐target effects of 3‐benzoyl‐5‐hydroxychromen‐2‐one in Alzheimer’s disease cell and mouse models” (Aging Cell, 2020)

How the values were obtained:
ΔK280 TauRD‐DsRed = experiment: Western blot of soluble ΔK280 TauRD‐DsRed in SH‐SY5Y cells; assay type: cell-based, human; details: 1 µM, not significant
Description: (§1) To knock down CREB expression in ∆K280 TauRD-DsRed SH-SY5Y cells, lentiviral short hairpin RNA (shRNA) targeting CREB (TRCN0000226466), NRF2 (TRCN0000007558), and a negative control scrambled (TRC2.Void) were obtained from National RNAi Core Facility, IMB/GRC, Academia Sinica, Taipei, Taiwan. On day 1, cells were plated on 6-well plates (for protein analysis) or 24-well plates (for neurite outgrowth analysis) in the presence of retinoic acid as described. On the second day, the cells were infected with lentivirus (multiplicity of infection: 3) in medium with polybrene (8 µg/mL; Sigma-Aldrich). […] On day 9, the cells were collected for NRF2, CREB, pCREB, and cleaved CASP3 protein analysis or analyzed for neurite outgrowth as described.
(§2) Total proteins from ∆K280 TauRD-DsRed SH-SY5Y cells were obtained using a RIPA buffer containing 50 mM Tris-HCl (pH8.0), 150 mM NaCl, 2 mM EDTA (pH8.0), 50 mM NaF, 0.1% SDS, 0.5% sodium deoxycholate, 1% NP40, and a protease inhibitor cocktail (Sigma-Aldrich). […] Protein concentrations were determined using a protein assay kit (Bio-Rad, Hercules, CA, USA), with albumin as a standard. […] Subsequently, immune complexes were detected using a horseradish peroxidase-conjugated goat anti-mouse or goat anti-rabbit IgG antibody (1:5000; GeneTex, Irvive, CA, USA) and a chemiluminescent substrate (Millipore).

pERK1/2 (T202/Y204) = experiment: Western blot of pERK1/2 (T202/Y204) in ∆K280 TauRD‐DsRed SH‐SY5Y cells; assay type: cell-based, human; details: induced untreated 90%, uninduced 100%
Description: (§3) Total proteins from ∆K280 TauRD-DsRed SH-SY5Y cells were obtained using a RIPA buffer containing 50 mM Tris-HCl (pH8.0), 150 mM NaCl, 2 mM EDTA (pH8.0), 50 mM NaF, 0.1% SDS, 0.5% sodium deoxycholate, 1% NP40, and a protease inhibitor cocktail (Sigma-Aldrich). After sonication and sitting on ice for 20 min, the lysates were centrifuged at 14,000 × g for 30 min at 4°C. Protein concentrations were determined using a protein assay kit (Bio-Rad, Hercules, CA, USA), with albumin as a standard. Total proteins (20 µg) were electrophoresed on 10% or 12% SDS-polyacrylamide gel and transferred onto polyvinylidene difluoride (PVDF) membranes (Sigma-Aldrich) through reverse electrophoresis. […] Subsequently, immune complexes were detected using a horseradish peroxidase-conjugated goat anti-mouse or goat anti-rabbit IgG antibody (1:5000; GeneTex, Irvive, CA, USA) and a chemiluminescent substrate (Millipore).
(§4) Figure S4. ΔK280 TauRD-DsRed SH-SY5Y cells. […] On day 9, neurite outgrowth and caspase 3 activity were measured. In addition, expression of HSPB1, NRF2, and CREB pathways were assessed. (b) Relative AKT, pAKT, ERK, and pERK protein levels analyzed through immunoblotting. […]

pAKT (S473) = experiment: Western blot of pAKT (S473) in ∆K280 TauRD‐DsRed SH‐SY5Y cells; assay type: cell-based, human; details: induced untreated 84%, uninduced 100%
Description: as §3, §4

GCLC = experiment: Western blot of GCLC in ∆K280 TauRD‐DsRed SH‐SY5Y cells; assay type: cell-based, human; details: 1 µM; induced untreated 78%, uninduced 100%
Description: as §3

NRF2 = experiment: Western blot of NRF2 in hippocampus of STZ‐treated 3 × Tg‐AD mice; assay type: in vivo, mouse; details: STZ 53%, – STZ 100%
Description: In addition, isolated hippocampal and cortex tissues from transgenic mice (as described in Animal studies) were homogenized and extracted proteins (10 µg) were separated and blotted. After being blocked, the membranes were probed with antibody against mouse NRF2 (1:500; Sigma-Aldrich), CREB (1:500; Millipore), pCREB (S133) (1:1000; Millipore), or GAPDH (1:1000; MDBio), and the immune complexes detected as described above.
Mice harboring APPSwe, PS1M146V, and […] transgenes (3×Tg-AD) (Oddo et al., 2003) were purchased from the Jackson Laboratory (004807; Bar Harbor, ME, USA). Six-month-old male homozygous 3×Tg-AD mice were group housed at 20–25°C and 60% relative humidity under a daily 12-h light/12-h dark cycle, with assess to food and water ad libitum. Mice were randomly divided into 3 groups: – streptozocin (STZ), STZ, and STZ/LM-031 (n = 10 per group). STZ-induced hyperglycemia was used to accelerate the development of AD phenotype (Chen et al., 2014). Briefly, the mice were fasted for 12 h each day prior to intraperitoneal (i.p.) injection of STZ ([…]; Sigma-Aldrich) or vehicle (0.1 M sodium citrate pH4.5) for 4 times (days 2, 3, 9, and 10) (Chen et al., 2019). Mouse body weight was measured and blood glucose level was measured on days 1, 8, 15, 22, and 29 using a blood glucose meter (Bioland Technology, Taipei, Taiwan). […]

ERK1/2 = experiment: Western blot of ERK1/2 in ∆K280 TauRD‐DsRed SH‐SY5Y cells; assay type: cell-based, human
Description: as §3, §4

pCREB (S133) = experiment: Western blot of pCREB (S133) in ∆K280 TauRD‐DsRed SH‐SY5Y cells; assay type: cell-based, human; details: 1 µM; induced untreated 78%, uninduced 100%
Description: as §1, §2

[1] = PAMPA‐BBB permeability assay
Description: The permeability of LM-031 was determined by a PAMPA-BBB assay. Briefly, the donor well (Millipore) was filled with 300 μl of LM-031 (1 μM) solution. […] The filter membrane (PVDF membrane, pore size 0.45 μm; Millipore) was coated with 4 μl of 20 mg/ml porcine polar brain lipid (Avanti Polar Lipids, Alabaster, AL, USA) in dodecane and the acceptor well was filled with 200 μl of acceptor buffer (5% DMSO in PBS). The filter plate was carefully placed on the donor plate to form a “sandwich” (consisting of aqueous donor on the bottom, artificial lipid membrane in the middle, and aqueous acceptor on the top). Each compound was tested in triplicate. The sandwich plate was incubated at room temperature for 18 h. After the permeation time, the PAMPA sandwich plate was separated. The concentration of LM-031 in the acceptor and donor wells was determined using QTRAP 6500 mass spectrometer (AB SCIEX, Singapore) linked to 1200 HPLC system (Agilent Technologies, Palo Alto, CA, USA).

BAX = experiment: Western blot of BAX in ∆K280 TauRD‐DsRed SH‐SY5Y cells; assay type: cell-based, human; details: induced untreated 120%, uninduced 100%
Description: as §3

O=C(c1ccccc1)c1cc2c(O)cccc2oc1=O [LM‐031, 3‐benzoyl‐5‐hydroxychromen‐2‐one]
soluble TauRD‐DsRed protein level (ΔK280 TauRD‐DsRed; CREB‐specific shRNA‐infected cells, untreated 86%): 104% | soluble TauRD‐DsRed protein level (ΔK280 TauRD‐DsRed; NRF2‐specific shRNA‐infected cells, untreated 82%): 103% | pERK1/2 (T202/Y204) expression level (pERK1/2 (T202/Y204)): 117% | pAKT (S473) expression level (pAKT (S473)): 113% | GCLC protein level (GCLC): 120% | NRF2 level in hippocampus (NRF2): 92% | ERK1/2 level (ERK1/2): not notably affected | pCREB (S133) protein level (pCREB (S133)): 124% | Papp at 18 h, 1 µM [1]: 4.8 ± 0.12 ×10⁻⁶ cm/s | BAX expression (BAX): 76%
